The record followed here is patent US20240174985A1, “METHOD FOR PRODUCING OVARIAN SOMATIC CELL-LIKE CELLS, AND METHOD FOR INDUCING DIFFERENTIATION OF PRIMATE PLURIPOTENT STEM CELLS INTO OVARIAN SOMATIC CELL-LIKE CELLS” (Kyoto University, priority 2021, published 2024).

Where two headings read alike, the source gives them in different places.

Common to all, as to assay type: cell-based
Data set [1] concerns cynomolgus monkey ES cells. Conditions: for concentration considered the best in step 2: conclusion at the time of experiment 21.
The test system of data set [2] is human iPS cells. The data set can be described thus: Induction of differentiation from human iPS cells into ovarian somatic cell-like cells (FACS of OSR1-tdTomato/NR5A1-EGFP reporters, observation of embryoid bodies). The text has this:
In order to conveniently observe the expression of genes typical at each developmental stage, a human iPS cell line 1390G3 was genetically modified, and a DNA sequence that emits red fluorescence (tdTomato) with the expression of the OSR1 gene, green fluorescence (EGFP) with the expression of the NR5A1 gene, and red fluorescence (tdTomato) with the expression of the FOXL2 gene was manufactured (see FIG. 1, and after introduction into the chromosome, a portion of “PGKp-Neo (or Puro)-pA” portion was deleted with Cre). An iPS cell line into which two DNA sequences of OSR1 and NR5A1 had been introduced (which may be hereinafter abbreviated as “OTNG”), and an iPS cell line into which two DNA sequences of NR5A1 and FOXL2 had been introduced (which may be hereinafter abbreviated as “NGFT”) were manufactured. In the present test, the OTNG strain was used in most of the experiments. Furthermore, NR5A1 and SF1 are the same gene.
(§1) The cells at each stage were analyzed using a flow cytometer (BD FACSAria III).
The ES cells of monkeys and human iPS cells are considered to be similar to EpiLC in a slightly advanced state in terms of differentiation, as compared with mouse ES cells. Therefore, in the examination using monkey or human pluripotent stem cells in the present test, step 0 was omitted and the process was started from step 1. […] For this reason, Y27632 was added to step 1 to perform examination. In addition, a 96-well V-bottom plate was used as a culture plate and the cells were seeded so as to have 10,000 cells per well.
In a test using human cells, the base medium was changed from GMEM (used in mice) to DMEM including 7.5 v/v % KnockOut (registered trademark) Serum Replacement (KSR). In addition, the base medium includes 0.1 mM 2-mercaptoethanol, 100 U/mL penicillin/streptomycin, and 2 mM GlutaMax (registered trademark), but the additives and concentrations thereof are fixed, and the description following “2.” is omitted. The periods of step 1 and step 2 were set to be the same as those in the mouse protocol, and culture was continued under the condition of step 3. The entire medium was basically changed every two or three days. At the time of subculturing iPS cells, 30,000 cells were seeded on a low-adhesive plate to start the culture as aggregates.

In data set [3] the test system is cynomolgus monkey ES cells.
Description: In order to conveniently observe the expression of genes represented by each developmental stage, the stop codons of TBXT, OSR1, NR5A1, FOXL2, WT1, and GATA4 were deleted from the cynomolgus monkey female ES15XRi cell strain using a Cas9 nickase and gene targeting, 2A and EGFP (TBXT, NR5A1), tdTomato (OSR1, FOXL2, and WT1), and 2A and mTagBFP2 (GATA4) were inserted, and then a drug-resistant cassette sandwiched between loxP's was knocked in (FIGS. 24A to 24F; and in FIG. 24A to FIG. 24F, “PGK” represents a PGK promoter). Thereafter, the drug-resistant cassette was removed using Cre to manufacture the following five double reporter cell strains. • (1) TBXT-EGFP/OSR1-tdTomato (which may be hereinafter abbreviated as a “TGOT strain”); • (2) NR5A1-EGFP/FOXL2-tdTomato (which may be hereinafter abbreviated as a “NGFT strain”); • (3) a single reporter strain of NR5A1-EGFP (which may be hereinafter abbreviated as an “NG-Puro strain”. This strain has not been subjected to the removal of the drug-resistant cassette by Cre); • (4) a triple reporter strain of WT1-tdTomato/GATA4-mTagBFP2/NR5A1-EGFP (which may be hereinafter abbreviated to as a “WTGBNG strain”); and • (5) WT1-tdTomato/NR5A1-EGFP (which may be hereinafter abbreviated as a “WTNG strain”).
as §1
At the time of induction, the ES cells were cultured on mouse embryonic fibroblasts (MEF), which are feeder cells, treated with a proteolytic enzyme solution (CTK: collagenase, trypsin, and KSR), and then dissociated up to a single-cell level using TrypLEselect. Next, each of 30,000 cells was seeded in a low-adhesive 96-well U-bottom culture plate (hereinafter, step 1 was started by the same method unless otherwise specified). A TGOT No. 25 strain was used as a cell strain. The presence or absence of the ROCK inhibitor (Y-27632) in step 1 was examined. In FIG. 25A, the base medium GK7.5 has a composition of GMEM, 7.5 v/v % KSR, 0.1 mM 2-ME, 0.1 mM non-essential amino acid (NEAA), 1 mM sodium pyruvate, 100 U/mL penicillin/streptomycin, and 2 mM L-glutamine. The induction was performed for a period in step 1 of 2 days and in step 2 of 2 days. In step 2, PD173074 was used instead of PD0325901 used in mice. PD173074 is an inhibitor of FGF, whereas PD0325901 is an MEK inhibitor downstream of the FGF signaling pathway.

For data set [4], the system named is human iPS cells. The data set can be described thus: Quantitative PCR of marker genes in cells induced from human iPS cells. The following applies: bFGF 5 ng/ml added in step 1; day 15 of induction. The text has this:
The relative expression level of each marker gene was confirmed using a PCR apparatus (BIO-RAD CFX384 Real-Time System) with the following primers and conditions. In the tables, the PPIA gene and the RPLP0 gene were used as housekeeping genes. The difference in qPCR is a difference from the average value taken as “(PPIA+RPLP0)/2”. In addition, the ERCC gene was used as an absolute control between samples.

The mark [5] stands for this setting: added to each condition in step 3 (16 patterns), day 16.
Where [6] appears, read: one cytokine added with EGF in step 3, compared with no cytokine control (CK−), BMP4 1 ng/ml, SHH 30 ng/mL, PD0325901 1 μM, RA 3 μM, day 16.
Setting [7] is: one cytokine added with EGF in step 3, compared with no cytokine control (CK−), day 16.

With `CNC1CCC(N(Cc2cccc(-c3ccncc3)c2)C(=O)c2sc3ccccc3c2Cl)CC1` (centres unmarked) [SAG], the “replacement of SHH in step 2” value in data set [1] (SAG 100 nM, FACS day 16) is recorded as “SHH can be replaced with SAG”.

As for `CC1(C)CC=C(C#Cc2ccccc2)c2cc(/C=C/c3ccc(C(=O)O)cc3)ccc21` [BMS493], the “OSR1 expression in step 2” value in data set [1] (1 μM in step 1, FACS days 2, 4, 6) is “enhancement”. In data set [1] (BMS493 1 μM added in step 3), the “expression level of SF1-EGFP” value is listed as “slightly increased” and the “induction efficiency of SF1-positive cells” value is “poor”. For the same molecule, the “expression level of WT1” value in data set [1] (BMS493 1 μM for 48 hours in step 3, WTGBNG No. 1 strain) is given as “slightly decreased”. Further, the “induction of NR5A1-positive cells” value in data set [1] (addition in step 1 (BMS493 1 μM), FACS day 14) is reported as “no particular advantage”.

`CC1=C(/C=C/C(C)=C/C=C/C(C)=C/C(=O)O)C(C)(C)CCC1` [RA, retinoic acid]: in data set [1] (0, 0.3, 1, 3, 10 μM tested, FACS day 16), the “concentration of RA in step 2 at which induction efficiency for NR5A1-positive cells was particularly excellent” value is not below 3 µM. Besides, the “concentration considered the best in step 2” value in data set [1] was 3 µM.

Regarding `Cc1c[nH]c(-c2cnc(NCCNc3ccc(C#N)cn3)nc2-c2ccc(Cl)cc2Cl)n1` [CHIR99021], the “proportion of NR5A1-positive cells” value in data set [2] (CHIR99021 15 μM as compared to 10 μM in step 1) is recorded as “excellent”. Further, the NR5A1-positive cells result in data set [1] (CHIR 20 μM in step 1, culture until day 17, NGFT No. 69 strain) is listed as “a number of NR5A1-positive cells were observed”. The “concentration of CHIR99021 at which OSR1 can be expressed with high efficiency” value in data set [1] (step 1, at a transition to step 2, FACS days 4 and 6) was not below 14 µM. In addition, the “expression of OSR1” value in data set [3] (CHIR 10 μM in step 1, regardless of the concentration of BMP4) is “confirmed”. Further, the “optimum concentration of CHIR for induction of the intermediate mesoderm” value in data set [3] (step 1) is not below 10 µM. The “concentration of CHIR99021 at which TBXT can be expressed with high efficiency” value in data set [3] (step 1 of 2 days, FACS day 2, TGOT No. 25 strain) was not below 8 µM.

Regarding BMP4: bone morphogenetic protein 4, the “embryoid bodies (size; concern about cytotoxicity)” value in data set [1] is reported as “the same tendency was recognized”. For the same molecule, the “best concentration in step 2 (induction efficiency)” value in data set [1] (BMP4 0, 1, 5, 10 and SHH 0, 30, 60, 100 ng/ml tested, FACS day 16) amounted to 1 ng/mL. Further, the “concentration in step 3 that most induced NR5A1-positive cells” value in data set [1] (BMP4 0, 1, 20, 50 and FGF9 0, 2, 10, 20 ng/ml tested, FACS day 16) turned out to be 1 ng/mL. Besides, the induction efficiency result in data set [1] (BMP4 not added after step 2 (four-step method), FACS day 16) is recorded as “higher”; in data set [1] (setting [6]), “reduced”. In addition, the “number of induced cells” value in data set [1] (setting [5]) was “decreased only in a case where BMP4 was added to EGF+RA (ER+B)”; in data set [1] (setting [7]) it was “large”. The “expression of OSR1” value in data set [1] (by the amount of BMP4 added in step 1 (1, 3, 10 ng/ml), CHIR 10 μM) is listed as “increase”; in data set [3] (increasing the amount of BMP in step 1, CHIR99021 14 μM or more), “enhanced”. Further, the “concentration considered the best in step 2” value in data set [1] was found to be 1 ng/mL. Besides, the “concentration in step 1 at which number and proportion of the positive cells were maximal” value in data set [1] (periods 3-3-10 (days), day 16) came out at 0 ng/mL.

With `C[C@@H](N)[C@H]1CC[C@H](C(=O)Nc2ccncc2)CC1` [Y-27632], in data set [3] (without Y-27632 in step 1, day 2 of induction, TGOT No. 25 strain), the “efficiency of forming cell aggregates (embryoid bodies)” value is on record as “significantly low”.

For `O=C(NOC[C@H](O)CO)c1ccc(F)c(F)c1Nc1ccc(I)cc1F` [PD0325901], the NR5A1-positive cells entry is given as “not observed at all” in data set [2] (PD0325901 not added in step 2, day 15 of induction) and “did not appear” in data set [2] (PD0325901 weak in step 2 (0.4-1.0 μM tested), day 15). The “PD0325901 concentration with the highest differentiation induction efficiency” value in data set [2] (step 2, KSR 7 v/v %, day 15) is 1.0 µM. In addition, the “optimum concentration of PD0325901 in step 2” value in data set [1] (FACS day 16, NGFT No. 69 strain) is 1 µM. Further, the induction efficiency result in data set [1] (MEK downstream of FGF inhibited with PD0325901 1 μM in step 3, FACS day 16) was “higher”; in data set [1] (setting [5]), “improved”; in data set [1] (addition of PD0325901 in step 3, without addition of SHH, WTGBNG No. 1), “the highest”; in data set [1] (setting [6]), “further increased”. Further, the “number of the induced cells” value in data set [1] (PD03 added in step 3, WTGBNG No. 1) was “reduced”. Moreover, the “number of induced cells” value in data set [1] (setting [5]) and in data set [1] (setting [7]) was “decreased” in each case. In addition, in data set [1], the “concentration considered the best in step 2” value was found to be 1 µM. The “optimum addition period of PD03 in step 3” value in data set [1] (none, 48 hours, 96 hours tested, NG-Puro strain) amounted to 48 h. Moreover, the “size (embryoid bodies) at the end of step 2” value in data set [1] (step 2: PD0325901 3, 1, 0.3, 0 μM or FGF9 20 ng/ml, day 6) is given as “improved as the amount of PD0325901 was reduced”.

Take EGF: epidermal growth factor: in data set [1], the “concentration considered the best in step 2” value is reported as 50 ng/mL. Moreover, in data set [1] (no addition of EGF in step 1 and step 2, FACS day 16, NGFT No. 69), the necessity for induction result was “not essential”.

Regarding “bFGF: basic fibroblast growth factor (FGF2)”, in data set [2] (added between day 2 and day 4 of induction, step 1 plane culture), the “states of the embryoid bodies” value is “poor (dead)”. For the same molecule, in data set [2] (bFGF not present in step 1 (versus added)), the differentiation induction efficiency entry was “higher”. Moreover, the “expression of the marker gene of posteriorization” value in data set [4] was “not recognized”. Moreover, the “expression of OSR1” value in data set [1] (added in step 1: bFGF 50 ng/mL entire period, Activin A 10 ng/ml one day from day 1, FACS days 2, 4, 6) is “acted toward enhancing the expression of OSR1”. In addition, the NR5A1-positive cells result in data set [1] (addition of bFGF in step 1, periods 2-2-12 (days), day 16) is “no significant change”. Further, in data set [1] (addition of bFGF in step 1, periods 3-3-10 (days), day 16), the “NR5A1-positive cell induction efficiency” value was “remarkable improvement”. The “improvement of the induction of NR5A1-positive cells” value in data set [1] (bFGF 50 ng/ml and Activin A 10 ng/ml (only from day 1) in step 1, days 14 and 21) is listed as “not recognized”. Besides, the “concentration in step 1 at which number and proportion of the positive cells were maximal” value in data set [1] (periods 3-3-10 (days), day 16) was found to be 5 ng/mL.
